This assay deals with PAR4 (Homo sapiens (Human), UniProt Q96RI0). Put plainly: FLIPR assay in PAR4-expressing HEK293 cells (PAR4 antagonist activity, calcium mobilization). The following applies: H-Ala-Phe(4-F)-Pro-Gly-Trp-Leu-Val-Lys-Asn-Gly-NH2-induced calcium mobilization. Type of assay: cell-based. A digest of the protocol:
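HEK293 EBNA cells stably expressing human PAR4 (also endogenous PAR1) preincubated 30 min at room temperature with compound in HBSS/10 mM HEPES, 0.67% DMSO final. PAR4 agonist peptide then added and intracellular calcium mobilization monitored by fluorescence.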
(In general: Calcium assays in cells follow changes in intracellular calcium, usually with a dye or a luminescent sensor.)

Chain of PAR4 (Q96RI0 18-385): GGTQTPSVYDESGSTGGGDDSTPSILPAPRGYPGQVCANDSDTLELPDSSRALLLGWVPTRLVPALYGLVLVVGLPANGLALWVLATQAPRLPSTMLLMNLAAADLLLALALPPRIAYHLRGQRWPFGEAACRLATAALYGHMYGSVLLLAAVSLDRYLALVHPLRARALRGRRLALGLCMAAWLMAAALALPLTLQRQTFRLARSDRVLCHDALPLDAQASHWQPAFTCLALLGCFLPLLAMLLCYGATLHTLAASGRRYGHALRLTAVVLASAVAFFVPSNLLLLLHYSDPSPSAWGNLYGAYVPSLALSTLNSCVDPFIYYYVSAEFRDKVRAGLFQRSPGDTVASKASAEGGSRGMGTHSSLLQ

By EC50 is commonly meant the concentration giving half of the maximal effect. As to `COc1cc(OCc2csc(C3(c4ccccc4F)CCOC3)n2)c2cc(-c3cn4nc(OC)sc4n3)oc2c1` (stereo not drawn) [Example 166, 6-(4-((2-(3-(2-Fluorophenyl)tetrahydrofuran-3-yl)thiazol-4-yl)methoxy)-6-methoxybenzofuran-2-yl)-2-methoxyimidazo[2,1-b][1,3,4]thiadiazole], the EC50 came out at 0.97 nM.

Turning to `COc1cc(OCc2csc(C3CCN(C(=O)OC(C)(C)C)CC3)n2)c2cc(-c3cn4nc(OC)sc4n3)oc2c1` [Example 109, tert-Butyl 4-(4-(((6-methoxy-2-(2-methoxyimidazo[2,1-b][1,3,4]thiadiazol-6-yl)benzofuran-4-yl)oxy)methyl)thiazol-2-yl)piperidine-1-carboxylate], the EC50 came out at 0.69 nM.

With `COc1nn2cc(-c3cc4c(OCc5csc(-c6ccc(C(=O)N7CCCC7)cc6)n5)cc(F)cc4o3)nc2s1` [Example 183, (4-(4-(((6-Fluoro-2-(2-methoxyimidazo[2,1-b][1,3,4]thiadiazol-6-yl)benzofuran-4-yl)oxy)methyl)thiazol-2-yl)phenyl)(pyrrolidin-1-yl)methanone], the EC50 was determined as 0.36 nM.

On to `COc1cc(OCc2csc(-c3ccno3)n2)c2cc(-c3cn4nc(OC)sc4n3)oc2c1` [Example 116, 5-(4-(((6-Methoxy-2-(2-methoxyimidazo[2,1-b][1,3,4]thiadiazol-6-yl)benzofuran-4-yl)oxy)methyl)thiazol-2-yl)isoxazole], for which the EC50 came out at 0.32 nM.

Turning to `COc1cc(OCc2csc(C3(O)CCC(C(=O)OC(C)(C)C)CC3)n2)c2cc(-c3cn4nc(OC)sc4n3)oc2c1` (stereo not drawn) [Example 149, tert-Butyl 4-hydroxy-4-(4-(((6-methoxy-2-(2-methoxyimidazo[2,1-b][1,3,4]thiadiazol-6-yl)benzofuran-4-yl)oxy)methyl)thiazol-2-yl)cyclohexanecarboxylate], the EC50 is 4.1 nM.

As for `COc1cc(OCc2csc(N3CC4(COC4)C3)n2)c2cc(-c3cn4nc(OC)sc4n3)oc2c1` [Example 104, 6-(4-(((6-Methoxy-2-(2-methoxyimidazo[2,1-b][1,3,4]thiadiazol-6-yl)benzofuran-4-yl)oxy)methyl)thiazol-2-yl)-2-oxa-6-azaspiro[3.3]heptane], the half-maximal effective concentration (EC50) amounted to 0.68 nM.

As for `COc1cc(OCc2csc(Br)n2)c2cc(-c3cn4nc(OC)sc4n3)oc2c1` [Example 35], the EC50 came to 1.3 nM.

For the compound `COc1cc(OCc2nc(-c3ccnc(F)c3)sc2C)c2cc(-c3cn4nc(C)ccc4n3)oc2c1` [Example 227], the concentration giving a half-maximal response (EC50) was 0.31 nM.

For the compound `COc1cc(OCc2csc(C3(c4ccc(C)cc4)CCOC3)n2)c2cc(-c3cn4nc(OC)sc4n3)oc2c1` (stereo not drawn) [Example 164, 2-Methoxy-6-(6-methoxy-4-((2-(3-(p-tolyl)tetrahydrofuran-3-yl)thiazol-4-yl)methoxy)benzofuran-2-yl)imidazo[2,1-b][1,3,4]thiadiazole], the EC50 was determined as 1.3 nM.

As to `COc1cc(OCc2csc(Nc3cccc(N(C)C)c3)n2)c2cc(-c3cn4nc(C)ccc4n3)oc2c1` [Example 248], the EC50 came to 3.1 nM.

Take `COc1cc(OCc2csc(-c3ccccc3Cl)n2)c2cc(-c3cn4nc(OC)sc4n3)oc2c1` [Example 16]: the EC50 was found to be 3.4 nM.

With `COc1cc(OCc2csc(N3CCN(Cc4cccnc4)CC3)n2)c2cc(-c3cn4nc(C)ccc4n3)oc2c1` [Example 270], the EC50 amounted to 5.8 nM.

For `CCc1sc(N2CCOCC2)nc1COc1cc(OC)cc2oc(-c3cn4nc(OC)sc4n3)cc12` [Example 105, 4-(5-Ethyl-4-(((6-methoxy-2-(2-methoxyimidazo[2,1-b][1,3,4]thiadiazol-6-yl)benzofuran-4-yl)oxy)methyl)thiazol-2-yl)morpholine], the EC50 worked out at 0.32 nM.

On to `COc1cc(OCc2csc(-c3cccc(C)c3)n2)c2cc(-c3cn4nc(OC)sc4n3)oc2c1` [Example 12], for which the EC50 was 1.3 nM.

On to `COc1cc(OCc2csc(C3(O)CCOC3)n2)c2cc(-c3cn4nc(OC)sc4n3)oc2c1` (stereo not drawn) [Example 123, 3-(4-(((6-Methoxy-2-(2-methoxyimidazo[2,1-b][1,3,4]thiadiazol-6-yl)benzofuran-4-yl)oxy)methyl)thiazol-2-yl)tetrahydrofuran-3-ol], for which the EC50 is 0.5 nM.

Consider `C=CCN(C)C(=O)c1ccc(-c2nc(COc3cc(OC)cc4oc(-c5cn6nc(OC)sc6n5)cc34)cs2)cc1` [Example 296], for which the EC50 came to 2.2 nM.

In the case of `COc1cc(OCc2csc(N3CCN(c4ccccn4)CC3)n2)c2cc(-c3cn4nc(C)ccc4n3)oc2c1` [Example 263], the EC50 was determined as 1.2 nM.

As for `COc1cc(OCc2csc(C3CCSCC3)n2)c2cc(-c3cn4nc(C)ccc4n3)oc2c1` [Example 204, 4-(((6-Methoxy-2-(6-methylimidazo[1,2-b]pyridazin-2-yl)benzofuran-4-yl)oxy)methyl)-2-(tetrahydro-2H-thiopyran-4-yl)thiazole], the EC50 is 0.72 nM.

As for `COc1cc(OCc2csc(C3CCN(S(C)(=O)=O)CC3)n2)c2cc(-c3cn4nc(OC)sc4n3)oc2c1` [Example 112, 2-Methoxy-6-(6-methoxy-4-((2-(1-(methylsulfonyl)piperidin-4-yl)thiazol-4-yl)methoxy)benzofuran-2-yl)imidazo[2,1-b][1,3,4]thiadiazole], the EC50 came out at 0.37 nM.

As to `COc1cc(OCc2csc(N3CCSCC3)n2)c2cc(-c3cn4nc(C)ccc4n3)oc2c1` [Example 217], the EC50 is 0.61 nM.

In the case of `COc1cc(OCc2csc(-c3cccc(OC(C)=O)c3)n2)c2cc(-c3cn4nc(OC)sc4n3)oc2c1` [Example 62], the EC50 is 0.48 nM.

Turning to `COc1cccc(C2(c3nc(COc4cc(OC)cc5oc(-c6cn7nc(OC)sc7n6)cc45)cs3)CCOCC2)c1` [Example 158, 2-Methoxy-6-(6-methoxy-4-((2-(4-(3-methoxyphenyl)tetrahydro-2H-pyran-4-yl)thiazol-4-yl)methoxy)benzofuran-2-yl)imidazo[2,1-b][1,3,4]thiadiazole], the EC50 came out at 0.95 nM.

For `COc1cc(OCc2csc(N3CCOC(C)C3)n2)c2cc(-c3cn4nc(C)ccc4n3)oc2c1` (stereo not drawn) [Example 277], the EC50 came out at 1.1 nM.

For the compound `COc1cc(OCc2csc(N(C)C(C)C)n2)c2cc(-c3cn4nc(C)ccc4n3)oc2c1` [Example 280], the EC50 was determined as 6.2 nM.

As for `COc1cc(OCc2csc(-c3ccc(C(=O)NC(C)C)cc3)n2)c2cc(-c3cn4nc(OC)sc4n3)oc2c1` [Example 304], the EC50 came out at 0.88 nM.

In the case of `COc1cc(OCc2nc(C3CCOCC3)sc2C)c2cc(-c3cn4nc(OC)sc4n3)oc2c1` [Example 95, 2-Methoxy-6-(6-methoxy-4-((5-methyl-2-(tetrahydro-2H-pyran-4-yl)thiazol-4-yl)methoxy)benzofuran-2-yl)imidazo[2,1-b][1,3,4]thiadiazole], the EC50 was 0.83 nM.

With `COc1cc(OCc2csc(C3(c4cccc(Cl)c4)CCOCC3)n2)c2cc(-c3cn4nc(C)ccc4n3)oc2c1` [Example 240], the EC50 worked out at 6.9 nM.

Consider `COc1ccc(C2(c3nc(COc4cc(OC)cc5oc(-c6cn7nc(OC)sc7n6)cc45)cs3)CCOCC2)cc1` [Example 159, 2-Methoxy-6-(6-methoxy-4-((2-(4-(4-methoxyphenyl)tetrahydro-2H-pyran-4-yl)thiazol-4-yl)methoxy)benzofuran-2-yl)imidazo[2,1-b][1,3,4]thiadiazole], for which the EC50 was determined as 0.41 nM.

In the case of `COC(=O)c1ccc(C2(c3nc(COc4cc(OC)cc5oc(-c6cn7nc(OC)sc7n6)cc45)cs3)CCOCC2)cc1` [Example 160, Methyl 4-(4-(4-(((6-methoxy-2-(2-methoxyimidazo[2,1-b][1,3,4]thiadiazol-6-yl)benzofuran-4-yl)oxy)methyl)thiazol-2-yl)tetrahydro-2H-pyran-4-yl)benzoate], the EC50 worked out at 0.5 nM.

For the compound `COc1cc(OCc2csc(N3CCSCC3)n2)c2cc(-c3cn4nc(OC)sc4n3)oc2c1` [Example 53], the EC50 came to 0.52 nM.

Consider `COc1cc(OCc2csc(-c3ccc(C(=O)N4CC(O)C4)cc3)n2)c2cc(-c3cn4nc(OC)sc4n3)oc2c1` [Example 290], for which the EC50 turned out to be 0.6 nM.

For `COc1cc(OCc2csc(NCc3cccc(N(C)C)c3)n2)c2cc(-c3cn4nc(C)ccc4n3)oc2c1` [Example 269], the EC50 turned out to be 2.5 nM.

On to `COc1cc(OCc2nc(C3(O)CCOCC3)sc2C)c2cc(-c3cn4nc(OC)sc4n3)oc2c1` [Example 124, 4-(4-(((6-Methoxy-2-(2-methoxyimidazo[2,1-b][1,3,4]thiadiazol-6-yl)benzofuran-4-yl)oxy)methyl)-5-methylthiazol-2-yl)tetrahydro-2H-pyran-4-ol], for which the EC50 worked out at 0.29 nM.

With `CCN(C(=O)c1ccc(-c2nc(COc3cc(OC)cc4oc(-c5cn6nc(OC)sc6n5)cc34)cs2)cc1)C1CC1` [Example 299], the EC50 was determined as 0.55 nM.

With `COc1cc(OCc2nc(N3CCOCC3)sc2CO)c2cc(-c3cn4nc(OC)sc4n3)oc2c1` [Example 89, (4-(((6-Methoxy-2-(2-methoxyimidazo[2,1-b][1,3,4]thiadiazol-6-yl)benzofuran-4-yl)oxy)methyl)-2-morpholinothiazol-5-yl)methanol], the EC50 worked out at 0.69 nM.

On to `COc1cc(OCc2nc(-c3cccc(COC(C)=O)c3)sc2C)c2cc(-c3cn4nc(C)ccc4n3)oc2c1` [Example 229], for which the EC50 worked out at 0.76 nM.

For the compound `COc1cc(OCc2csc(-c3cnccn3)n2)c2cc(-c3cn4nc(OC)sc4n3)oc2c1` [Example 32], the EC50 came out at 1.3 nM.

Turning to `COc1cc(OCc2nc(-c3ccnc(F)c3)sc2C)c2cc(-c3cn4nc(OC)sc4n3)oc2c1` [Example 71], the EC50 is 0.46 nM.

Regarding `COc1cc(OCc2csc(C(C)(C)c3ccccc3)n2)c2cc(-c3cn4nc(OC)sc4n3)oc2c1` [Example 175, 2-Methoxy-6-(6-methoxy-4-((2-(2-phenylpropan-2-yl)thiazol-4-yl)methoxy)benzofuran-2-yl)imidazo[2,1-b][1,3,4]thiadiazole], the EC50 came to 1.4 nM.

For the origin of these results see patent publication US9688695B2, “Imidazothiadiazole and imidazopyrazine derivatives as protease activated receptor 4 (PAR4) inhibitors for treating platelet aggregation” (BRISTOL-MYERS SQUIBB COMPANY, priority 2012, dated 2017).
